Data reported in patent US20150044316A1, “METHOD FOR PREPARING A PURIFIED EXTRACT OF LONICERA JAPONICA THUNBERG AND THE COMPOSITION COMPRISING THE SAME FOR PREVENTING AND TREATING SEPSIS AND SEPTIC SHOCK” (Huons Co., Ltd., priority 2012, published 2015).

Test system: severe sepsis CLP model
Conditions: severe sepsis CLP mice
Experimental: To assess the treating activity of the combination of the purified extract prepared in the Examples with antibiotics on severe sepsis, following experiment was performed by using severe sepsis CLP model according to the modified procedure disclosed in the procedure (Daniel Rittirsch, et al. Immuodesign of Experimental sepsis by cecal ligation and puncture. Nature Protocols, Vol. 4(1), pp 31-36, 2009).
Anesthetic(ketamine hydrochloride, 100 mg/kg, Yuhan Pharm. Co.) was intraperitoneally injected to the mice (ICR female, 23-25 g, 8 weeks-old, www.dhbiolink.com) and sepsis was induced to the mice using by CLP (Cecal ligation and puncture). Cavus abdominis medians was dissected and cecum was exposed to ligate the distal ileocecal valve by silk suture (medical suture thread No. 1 & No. 2, www. lead-care.com), Two-holes were made at the cecum by a thread so as to exude the certain amount of fecal material. The cecum was put into the abdominal cavity together with fecal material and physiological saline solution was subcutaneously injected thereto to induce sepsis.
In particular, the suturing position of the distal ileocecal valve was changed and the number of puncture was more than 2 to increase the amount of fecal material in this experiment in order to inducing severe sepsis CLP model.

[1] = imipenem 25 mg/kg, HS-23 40 mg/kg

Structure (SMILES): C[C@@H](O)[C@H]1C(=O)N2C(C(=O)O)=C(SCCN=CN)C[C@H]12 [Imipenem, imipenem]
- survival rate at 1st day after the CLP (imipenem 25 mg/kg every 12 hours for 4 days, HS-23 40 mg/kg i.v.): 83%
- final survival rate at 10th days [1]: 33%
- survival rate at 2nd day after the CLP [1]: 58%
- survival rate at 3rd day after the CLP [1]: 50%
- survival rate at 4th day to 10th day after the CLP [1]: 42%
